{"source": "patent US10647598B2", "about": "“Antimicrobial and algicidal agent for cooling water system” (KURITA WATER INDUSTRIES LTD., priority 2013, dated 2020)", "key": {"[1]": {"system": "Algae A", "assay": "Test tube algicidal test on algae A sampled from cooling tower A", "type": "cell-based, diatoms, containing green algae", "set-up": "key to the marks not given beside the values", "settings": "visual inspection after 3 days at north-side window; CSA and algicidal agent amounts per example as in Table 1", "protocol": "(§1) A test water system containing algae was prepared as described below.\n(§2) Secondary treated water obtained by filtrating sewage using a filter having a pore diameter of 0.1 μm was received in a beaker having a volume of 1 L, and to this secondary treated water, 1 g of algae sampled from each of cooling towers A, B, and C in which an antimicrobial treatment was performed using a chlorosulfamic acid was added. Algae A sampled from the cooling tower A were diatoms and contained green algae. Algae B sampled from the cooling tower B were primarily formed of green algae and contained blue-green algae and diatoms. Algae C sampled from the cooling tower C were primarily formed of blue-green algae and contained green algae and diatoms.\n(§3) After being raveled and sufficiently dispersed in the beaker, the algae A, B, and C were each dispensed into test tubes.\n(§4) In Examples 1 to 5 and Comparative Examples 8 to 11 and 13 to 16, a chlorosulfamic acid (abbreviated as “CSA”, and the addition amount represents the residual chlorine concentration) and one of 5-chloro-2-methyl-4-isothiazolone-3-one (abbreviated as “MIT”), 2,2-dibromo-3-nitrilopropion amide (abbreviated as “DBNPA”), and 2-bromo-2-nitro-1,3-propanediol (abbreviated as “BNP) were added to each test tube so as to have predetermined concentrations shown in Table 1. In Comparative Example 6, MIT was only added. In Comparative Example 7, DBNPA was only added. In Comparative Example 12, BNP was only added. In Comparative Example 17, no chemical agents were added. Subsequently, after the test tubes were left for 3 days at a north-side window so as not to be exposed to direct sunlight, the conditions of the algae were observed by visual inspection and evaluated in accordance with the following criteria.\n(§5) <Evaluation Criteria> • −: Reduction (death) of algae is apparently observed from the start of the test. • ±: Condition is the same as that at the start of the test. • +: Slight increase of algae is observed as compared to the condition at the start of the test. • ++: Apparent increase of algae is observed as compared to the condition at the start of the test. • +++: Significant increase of algae is observed as compared to the condition at the start of the test."}, "[2]": {"system": "Algae B", "assay": "Test tube algicidal test on algae B sampled from cooling tower B", "type": "cell-based, green algae, containing blue-green algae and diatoms", "settings": "visual inspection after 3 days at north-side window; CSA and algicidal agent amounts per example as in Table 1", "protocol": "as §1, §2, §3, §4, §5"}, "[3]": {"system": "Algae C", "assay": "Test tube algicidal test on algae C sampled from cooling tower C", "type": "cell-based, blue-green algae, containing green algae and diatoms", "set-up": "key to the marks not given beside the values", "settings": "visual inspection after 3 days at north-side window; CSA and algicidal agent amounts per example as in Table 1", "protocol": "as §1, §2, §3, §4, §5"}, "[4]": {"system": "algae A to C", "assay": "Test tube algicidal test, overall assessment", "type": "cell-based", "settings": "Table 1, algae A to C, 3 days", "protocol": "as §1, §2, §3\nIn Examples 1 to 5 and Comparative Examples 8 to 11 and 13 to 16, a chlorosulfamic acid (abbreviated as “CSA”, and the addition amount represents the residual chlorine concentration) and one of 5-chloro-2-methyl-4-isothiazolone-3-one (abbreviated as “MIT”), 2,2-dibromo-3-nitrilopropion amide (abbreviated as “DBNPA”), and 2-bromo-2-nitro-1,3-propanediol (abbreviated as “BNP) were added to each test tube so as to have predetermined concentrations shown in Table 1. In Comparative Example 6, MIT was only added. In Comparative Example 7, DBNPA was only added. In Comparative Example 12, BNP was only added. In Comparative Example 17, no chemical agents were added. Subsequently, after the test tubes were left for 3 days at a north-side window so as not to be exposed to direct sunlight, the conditions of the algae were observed by visual inspection and evaluated in accordance with the following criteria. […]"}}, "data": [{"compound": "O=S(=O)(O)NCl", "note": "[Comparative Example 1, chlorosulfamic acid]", "values": [{"measurement": "Evaluation Results Algae A", "setting": "[1]", "value": "+++"}, {"measurement": "Evaluation Results Algae B", "setting": "[2]", "value": "++"}, {"measurement": "Evaluation Results Algae C", "setting": "[3]", "value": "+++"}]}, {"compound": "Cn1sc(Cl)cc1=O", "note": "[Comparative Example 6, 5-chloro-2-methyl-4-isothiazolone-3-one]", "values": [{"measurement": "Evaluation Results Algae A", "setting": "[1]", "value": "++"}, {"measurement": "Evaluation Results Algae B", "setting": "[2]", "value": "+"}, {"measurement": "Evaluation Results Algae C", "setting": "[3]", "value": "+++"}, {"measurement": "Algicidal effect, assessment in words", "setting": "[4]", "value": "a sufficient effect cannot be obtained"}]}, {"compound": "N#CC(Br)(Br)C(N)=O", "note": "[Comparative Example 7, 2,2-dibromo-3-nitrilopropion amide]", "values": [{"measurement": "Evaluation Results Algae A", "setting": "[1]", "value": "++"}, {"measurement": "Evaluation Results Algae B", "setting": "[2]", "value": "+"}, {"measurement": "Evaluation Results Algae C", "setting": "[3]", "value": "+++"}]}, {"compound": "O=[N+]([O-])C(Br)(CO)CO", "note": "[Comparative Example 12, 2-bromo-2-nitro-1,3-propanediol]", "values": [{"measurement": "Evaluation Results Algae A", "setting": "[1]", "value": "++"}, {"measurement": "Evaluation Results Algae B", "setting": "[2]", "value": "++"}, {"measurement": "Evaluation Results Algae C", "setting": "[3]", "value": "+++"}]}, {"compound": "O=S(=O)(O)NCl", "note": "[compound 2, chlorosulfamic acid]", "values": [{"measurement": "Evaluation Results Algae A", "setting": "[1]", "value": "+++"}, {"measurement": "Evaluation Results Algae B", "setting": "[2]", "value": "++"}, {"measurement": "Evaluation Results Algae C", "setting": "[3]", "value": "+++"}]}, {"compound": "O=S(=O)(O)NCl", "note": "[compound 3, chlorosulfamic acid]", "values": [{"measurement": "Evaluation Results Algae A", "setting": "[1]", "value": "+++"}, {"measurement": "Evaluation Results Algae B", "setting": "[2]", "value": "++"}, {"measurement": "Evaluation Results Algae C", "setting": "[3]", "value": "+++"}]}, {"compound": "O=S(=O)(O)NCl", "note": "[compound 4, chlorosulfamic acid]", "values": [{"measurement": "Evaluation Results Algae A", "setting": "[1]", "value": "+++"}, {"measurement": "Evaluation Results Algae B", "setting": "[2]", "value": "+"}, {"measurement": "Evaluation Results Algae C", "setting": "[3]", "value": "++"}, {"measurement": "Algicidal effect, assessment in words", "setting": "[4]", "value": "a sufficient effect also cannot be obtained"}]}, {"compound": "O=S(=O)(O)NCl", "note": "[compound 5, chlorosulfamic acid]", "values": [{"measurement": "Evaluation Results Algae A", "setting": "[1]", "value": "+++"}, {"measurement": "Evaluation Results Algae B", "setting": "[2]", "value": "+"}, {"measurement": "Evaluation Results Algae C", "setting": "[3]", "value": "++"}, {"measurement": "Algicidal effect, assessment in words", "setting": "[4]", "value": "a sufficient effect also cannot be obtained"}]}]}
